Assay results from patent US20250320213A1, “Nitrogen-Containing Heterocyclic Compounds” (Pfizer Inc., priority 2024, published 2025).
Structures can show the parent of a compound that is named as a salt. Where two headings read alike, the source gives them in different places.

Legend:
[1] = tested on: CCL17 secretion in peripheral human whole blood; test: Human Whole Blood (HWB) CCL17 TR-FRET Assay (IL-13 stimulated CCL17 secretion); type: cell-based; details: human whole blood, IL-13 stimulated
Outline: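 IC50 values reflect inhibition of IL-13-driven CCL17 release in human whole blood. Blood was preincubated with compound 2 h, stimulated 48 h at 37 °C with IL-13 (10 ng/mL final), and serum CCL17 was measured by TR-FRET.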

STAT6 = target: T1, STAT6 (Homo sapiens, UniProt P42226); test: STAT6 Reporter Luciferase Assay (IL-13 stimulated HaCaT keratinocyte NanoLuc reporter cells); type: cell-based
T1 construct: stably transfected HaCaT keratinocyte cell line, which expresses NanoLuc luciferase reporter gene under the transcriptional control of the STAT6 responsive promoter; endogenous in cells; host or cells: HaCaT keratinocyte reporter cell line (stably transfected with a NanoLuc reporter)
T1 sequence (P42226 1-847): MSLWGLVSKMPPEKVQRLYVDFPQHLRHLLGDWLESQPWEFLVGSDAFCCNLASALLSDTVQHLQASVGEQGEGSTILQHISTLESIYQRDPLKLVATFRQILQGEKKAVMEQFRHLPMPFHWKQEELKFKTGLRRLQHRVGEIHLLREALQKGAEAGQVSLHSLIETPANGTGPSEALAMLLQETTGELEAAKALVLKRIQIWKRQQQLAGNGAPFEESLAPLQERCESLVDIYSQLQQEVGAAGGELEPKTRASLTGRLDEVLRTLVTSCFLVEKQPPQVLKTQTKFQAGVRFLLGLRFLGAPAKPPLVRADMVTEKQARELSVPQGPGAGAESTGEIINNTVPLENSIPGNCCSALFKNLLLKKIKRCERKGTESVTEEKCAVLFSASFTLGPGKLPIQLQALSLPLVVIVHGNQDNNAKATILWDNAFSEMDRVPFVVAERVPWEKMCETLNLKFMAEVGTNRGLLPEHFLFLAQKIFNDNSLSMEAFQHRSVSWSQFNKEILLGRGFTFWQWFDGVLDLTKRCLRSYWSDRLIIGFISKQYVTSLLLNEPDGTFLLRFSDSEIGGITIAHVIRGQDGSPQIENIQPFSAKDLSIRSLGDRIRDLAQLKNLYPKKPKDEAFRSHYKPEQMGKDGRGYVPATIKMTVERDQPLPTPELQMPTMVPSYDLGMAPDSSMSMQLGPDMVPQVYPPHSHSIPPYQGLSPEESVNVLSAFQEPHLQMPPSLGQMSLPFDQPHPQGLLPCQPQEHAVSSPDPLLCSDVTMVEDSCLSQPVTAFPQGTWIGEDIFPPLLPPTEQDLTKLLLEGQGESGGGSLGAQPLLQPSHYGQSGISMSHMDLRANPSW
Outline: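 Cells were plated overnight, washed, exposed to compound for two hours, stimulated with IL-13 (0.12 nM final) for four hours at 37 °C, and then lysed with Nano-Glo substrate for 15 min before luminescence reading.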

[2] = IL-13 stimulated HaCaT STAT6 NanoLuc reporter cells, read-out: Reporter EC50

Row | IC50 ([1]; Homo sapiens, 48 h) | EC50 (STAT6; [2]) | SMILES | IC50 ([1]; 48 hours) | EC50 (STAT6; Reporter EC50, IL-13 stimulated HaCaT STAT6 NanoLuc reporter cells)
1 | 3 nM | 0.3 nM | CNC(=O)Nc1ccc(CNC(=O)c2nn(C(C)C)c3c2CN(c2ccc(N4CCCC4=O)cn2)C[C@@H]3C)cc1 [Example 480, (S)-1-isopropyl-7-methyl-N-(4-(3-methylureido)benzyl)-5-(5-(2-oxopyrrolidin-1-yl)pyridin-2-yl)-4,5,6,7-tetrahydro-1H-pyrazolo[4,3-c]pyridine-3-carboxamide] | – | –
2 | 14 nM | 1 nM | CNC(=O)Nc1ccc(CNC(=O)c2nn(C(C)C)c3c2CN(c2ncc(N4CCCC4=O)cn2)C[C@@H]3C)cc1 [Example 481, (S)-1-isopropyl-7-methyl-N-(4-(3-methylureido)benzyl)-5-(5-(2-oxopyrrolidin-1-yl)pyrimidin-2-yl)-4,5,6,7-tetrahydro-1H-pyrazolo[4,3-c]pyridine-3-carboxamide] | – | –
3 | 25 nM | 7 nM | CCn1nc(C(=O)NCc2ccc(NC(=O)NC)cc2)c2c1[C@@H](C)CN(c1ncc(N3CCCC3=O)cn1)C2 [Example 482, (S)-1-ethyl-7-methyl-N-(4-(3-methylureido)benzyl)-5-(5-(2-oxopyrrolidin-1-yl)pyrimidin-2-yl)-4,5,6,7-tetrahydro-1H-pyrazolo[4,3-c]pyridine-3-carboxamide] | – | –
4 | 63 nM | 33 nM | CCn1nc(C(=O)NCc2ccc(C(N)=O)cc2)c2c1[C@@H](C)CN(c1ncc(N3CCCC3=O)cn1)C2 [Example 483, (S)-N-(4-carbamoylbenzyl)-1-ethyl-7-methyl-5-(5-(2-oxopyrrolidin-1-yl)pyrimidin-2-yl)-4,5,6,7-tetrahydro-1H-pyrazolo[4,3-c]pyridine-3-carboxamide] | – | –
5 | 108 nM | 26 nM | CCn1nc(C(=O)NCc2ccc(C(=O)NC)cc2)c2c1[C@@H](C)CN(c1ncc(N3CCCC3=O)cn1)C2 [Example 484, (S)-1-ethyl-7-methyl-N-(4-(methylcarbamoyl)benzyl)-5-(5-(2-oxopyrrolidin-1-yl)pyrimidin-2-yl)-4,5,6,7-tetrahydro-1H-pyrazolo[4,3-c]pyridine-3-carboxamide] | – | –
6 | 11 nM | 2 nM | CC(C)n1nc(C(=O)NCc2ccc(NC(=O)N(C)C)cc2)c2c1[C@@H](C)CN(c1ncc(N3CCCC3=O)cn1)C2 [Example 486, (S)-N-(4-(3,3-dimethylureido)benzyl)-1-isopropyl-7-methyl-5-(5-(2-oxopyrrolidin-1-yl)pyrimidin-2-yl)-4,5,6,7-tetrahydro-1H-pyrazolo[4,3-c]pyridine-3-carboxamide] | – | –
7 | 16 nM | 2 nM | CC(C)n1nc(C(=O)NCc2ccc(-c3ncc[nH]3)cc2)c2c1[C@@H](C)CN(c1ncc(N3CCCC3=O)cn1)C2 [Example 487, (S)-N-(4-(1H-imidazol-2-yl)benzyl)-1-isopropyl-7-methyl-5-(5-(2-oxopyrrolidin-1-yl)pyrimidin-2-yl)-4,5,6,7-tetrahydro-1H-pyrazolo[4,3-c]pyridine-3-carboxamide] | – | –
8 | 27 nM | 3 nM | CCn1nc(C(=O)NCc2ccc(NC(=O)N(C)C)cc2)c2c1[C@@H](C)CN(c1ncc(N3CCCC3=O)cn1)C2 [Example 488, (S)-N-(4-(3,3-dimethylureido)benzyl)-1-ethyl-7-methyl-5-(5-(2-oxopyrrolidin-1-yl)pyrimidin-2-yl)-4,5,6,7-tetrahydro-1H-pyrazolo[4,3-c]pyridine-3-carboxamide] | – | –
9 | 17 nM | 18 nM | CC(C)n1nc(C(=O)NCc2ccc(C(N)=O)cc2)c2c1[C@@H](C)CN(c1ncc(N3CCCC3=O)cn1)C2 [Example 489, (S)-N-(4-carbamoylbenzyl)-1-isopropyl-7-methyl-5-(5-(2-oxopyrrolidin-1-yl)pyrimidin-2-yl)-4,5,6,7-tetrahydro-1H-pyrazolo[4,3-c]pyridine-3-carboxamide] | – | –
10 | 50 nM | 13 nM | CNC(=O)c1ccc(CNC(=O)c2nn(C(C)C)c3c2CN(c2ncc(N4CCCC4=O)cn2)C[C@@H]3C)cc1 [Example 490, (S)-1-isopropyl-7-methyl-N-(4-(methylcarbamoyl)benzyl)-5-(5-(2-oxopyrrolidin-1-yl)pyrimidin-2-yl)-4,5,6,7-tetrahydro-1H-pyrazolo[4,3-c]pyridine-3-carboxamide] | – | –
11 | 34 nM | 7 nM | CC(C)n1nc(C(=O)NCc2ccc(N)cc2)c2c1[C@@H](C)CN(c1ncc(C(=O)N(C)C)cn1)C2 [Example 491, (S)-N-(4-aminobenzyl)-5-(5-(dimethylcarbamoyl)pyrimidin-2-yl)-1-isopropyl-7-methyl-4,5,6,7-tetrahydro-1H-pyrazolo[4,3-c]pyridine-3-carboxamide] | – | –

The next lines start with the molecule.

Row | SMILES | IC50 ([1]; Homo sapiens, 48 h) | EC50 (STAT6; [2]) | IC50 ([1]; 48 hours) | EC50 (STAT6; Reporter EC50, IL-13 stimulated HaCaT STAT6 NanoLuc reporter cells)
12 | CC(C)n1nc(C(=O)NCc2ccc(NC(=O)N3CCN(C)CC3)cc2)c2c1[C@@H](C)CN(c1ccc(C(=O)N(C)C)cn1)C2 [Example 470, (S)-5-(5-(dimethylcarbamoyl)pyridin-2-yl)-1-isopropyl-7-methyl-N-(4-(4-methylpiperazine-1-carboxamido)benzyl)-4,5,6,7-tetrahydro-1H-pyrazolo[4,3-c]pyridine-3-carboxamide] | 5 nM | 1 nM | – | –
13 | Cc1nn(C)c(=O)n1-c1ccc(CNC(=O)c2nn(C(C)C)c3c2CN(c2ccc(C(=O)N(C)C)cn2)C[C@@H]3C)cc1 [Example 471, (S)-N-(4-(1,3-dimethyl-5-oxo-1,5-dihydro-4H-1,2,4-triazol-4-yl)benzyl)-5-(5-(dimethylcarbamoyl)pyridin-2-yl)-1-isopropyl-7-methyl-4,5,6,7-tetrahydro-1H-pyrazolo[4,3-c]pyridine-3-carboxamide] | 3290 nM | 432 nM | – | –
14 | CC(C)n1nc(C(=O)NCc2ccc(NC(=O)N(C)C)cc2)c2c1C(O)CN(c1ccc(C(=O)N(C)C)cn1)C2 (centres unmarked) [Example 473, 5-(5-(dimethylcarbamoyl)pyridin-2-yl)-N-(4-(3,3-dimethylureido)benzyl)-7-hydroxy-1-isopropyl-4,5,6,7-tetrahydro-1H-pyrazolo[4,3-c]pyridine-3-carboxamide] | 5 nM | 0.3 nM | – | –
15 | CCn1nc(C(=O)NCc2ccc(NC(=O)NC)cc2)c2c1[C@@H](C)CN(c1ccc(N3CCCC3=O)cn1)C2 [Example 476, (S)-1-ethyl-7-methyl-N-(4-(3-methylureido)benzyl)-5-(5-(2-oxopyrrolidin-1-yl)pyridin-2-yl)-4,5,6,7-tetrahydro-1H-pyrazolo[4,3-c]pyridine-3-carboxamide] | 9 nM | 1 nM | – | –
16 | CCn1nc(C(=O)NCc2ccc(NC(=O)N(C)C)cc2)c2c1[C@@H](C)CN(c1ccc(C(=O)N3Cc4cccnc4C3)cn1)C2 [Example 477, (S)-5-(5-(6,7-dihydro-5H-pyrrolo[3,4-b]pyridine-6-carbonyl)pyridin-2-yl)-N-(4-(3,3-dimethylureido)benzyl)-1-ethyl-7-methyl-4,5,6,7-tetrahydro-1H-pyrazolo[4,3-c]pyridine-3-carboxamide] | 4 nM | 0.4 nM | – | –
17 | CNC(=O)c1ccc(CNC(=O)c2nn(C(C)C)c3c2CN(c2ccc(N4CCCC4=O)cn2)C[C@@H]3C)cc1 [Example 478, (S)-1-isopropyl-7-methyl-N-(4-(methylcarbamoyl)benzyl)-5-(5-(2-oxopyrrolidin-1-yl)pyridin-2-yl)-4,5,6,7-tetrahydro-1H-pyrazolo[4,3-c]pyridine-3-carboxamide] | 17 nM | 2 nM | – | –
18 | CC(C)n1nc(C(=O)NCc2ccc(C(N)=O)cc2)c2c1[C@@H](C)CN(c1ccc(N3CCCC3=O)cn1)C2 [Example 479, (S)-N-(4-carbamoylbenzyl)-1-isopropyl-7-methyl-5-(5-(2-oxopyrrolidin-1-yl)pyridin-2-yl)-4,5,6,7-tetrahydro-1H-pyrazolo[4,3-c]pyridine-3-carboxamide] | 15 nM | 4 nM | – | –
19 | CC(C)n1nc(C(=O)NCc2ccc(NC(=O)N3CCC(OC4CCNCC4)CC3)cc2)c2c1[C@@H](C)CN(c1ccc(C(=O)N(C)C)cc1)C2 [Example 485, (S)-5-(4-(Dimethylcarbamoyl)phenyl)-1-isopropyl-7-methyl-N-(4-(4-(piperidin-4-yloxy)piperidine-1-carboxamido)benzyl)-4,5,6,7-tetrahydro-1H-pyrazolo[4,3-c]pyridine-3-carboxamide hydrochloride] | – | – | 4 nM | 1 nM
